According to patent publication US8003655B2, “Substituted sulphoximines as TIE2 inhibitors and salts thereof, pharmaceutical compositions comprising same, methods of preparing same and uses of same” (Bayer Schering Pharma AG, priority 2006, dated 2011):

Experiments:
Assay type in all cases: biochemical
CDK2/CycE = molecular target: T1, CDK2/CycE (Homo sapiens, UniProt P24941); test: CDK2 HTRF Assay (assay 4); conditions: 10 μM ATP, pIC50 = −log IC50 in molar concentration
T1 construct: GST; purchased ProQinase GmbH (Freiburg, Germany); host or cells: insect cells (Sf9)
From the text: CDK2/CycE-inhibitory activity of compounds of the present invention was quantified employing the CDK2/CycE HTRF assay as described in the following paragraphs.
Recombinant fusion proteins of GST and human CDK2 and of GST and human CycE, expressed in insect cells (Sf9) and purified by Glutathion-Sepharose affinity chromatography, were purchase from ProQinase GmbH (Freiburg, Germany). As substrate for the kinase reaction biotinylated peptide biotin-Ttds-YISPLKSPYKISEG (C-terminus in amid form) was used which can be purchased e.g. form the company JERINI peptide technologies (Berlin, Germany).
CDK2/CycE was incubated for 60 min at 22° C. in the presence of different concentrations of test compounds in 5 μl assay buffer [50 mM Tris/HCl pH 8.0, 10 mM MgCl2, 1.0 mM dithiothreitol, 0.1 mM sodium ortho-vanadate, 10 μM adenosine-tri-phosphate (ATP), 0.75 μM substrate, 0.01% (v/v) Nonidet-P40 (Sigma), 1% (v/v) dimethylsulfoxide]. The concentration of CDK2/CycE was adjusted depending of the activity of the enzyme lot and was chosen appropriate to have the assay in the linear range, typical concentrations were in the range of 1 ng/ml. The reaction was stopped by the addition of 5 μl of a solution of HTRF detection reagents (0.2 μM streptavidine-XLent and 3.4 nM Phospho-(Ser) CDKs Substrate Antibody [product #2324B, Cell Signalling Technology, Danvers, Mass., USA} and 4 nM Prot-A-EuK [Protein A labeled with Europium Cryptate from Cis biointernational, France, product no. 61PRAKLB]) in an aqueous EDTA-solution (100 mM EDTA, 800 mM KF, 0.2% (w/v) bovine serum albumin in 100 mM HEPES/NaOH pH 7.0).

preactivated Tie2 = molecular target: T2, preactivated Tie2 (Homo sapiens, UniProt Q02763); test: Tie2-Kinase HTRF-Assay with kinase preactivation (assay 3); conditions: 10 μM ATP, pIC50 = −log IC50 in molar concentration, read-out: Tie 2 activity (assay 3)
T2 construct: A recombinant fusion protein of GST and the intracellular domains of Tie2; GST; made in house; host or cells: insect cells (Hi-5)
T2 sequence (Q02763 770-1124 limits assumed): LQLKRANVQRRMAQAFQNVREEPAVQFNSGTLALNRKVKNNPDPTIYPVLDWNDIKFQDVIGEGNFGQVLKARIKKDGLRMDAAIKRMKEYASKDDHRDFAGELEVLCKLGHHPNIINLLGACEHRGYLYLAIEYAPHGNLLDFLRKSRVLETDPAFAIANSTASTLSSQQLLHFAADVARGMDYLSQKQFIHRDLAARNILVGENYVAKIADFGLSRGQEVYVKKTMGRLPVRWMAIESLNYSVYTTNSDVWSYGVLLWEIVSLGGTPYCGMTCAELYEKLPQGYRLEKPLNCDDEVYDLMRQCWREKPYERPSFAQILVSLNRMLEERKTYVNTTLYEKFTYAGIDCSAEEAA
Experimental: Assay 3: Tie2-Kinase HTRF-Assay with Kinase Preactivation
A recombinant fusion protein of GST and the intracellular domains of Tie2, expressed in insect cells (Hi-5) and purified by Glutathion-Sepharose affinity chromatography was used as kinase. As substrate for the kinase reaction the biotinylated peptide biotin-Ahx-EPKDDAYPLYSDFG (C-terminus in amid form) was used which can be purchased e.g. from the company Biosynthan GmbH (Berlin-Buch, Germany).
For activation, Tie2 was incubated at a conc. 12.5 ng/μl of for 20 min at 22° C. in the presence of 250 μM adenosine-tri-phosphate (ATP) in assay buffer [50 mM Hepes/NaOH pH 7, 10 mM MgCl2, 0.5 mM MnCl2, 1.0 mM dithiothreitol, 0.01% NP40, protease inhibitor mixture (“Complete w/o EDTA” from Roche, 1 tablet per 2.5 ml)].
For the subsequent kinase reaction, the preactivated Tie2 (0.5 ng/measurement point) was incubated for 20 min at 22° C. in the presence of 10 μM adenosine-tri-phosphate (ATP) and 1 μM substrate peptide (biotin-Ahx-EPKDDAYPLYSDFG-NH2) with different concentrations of test compounds (0 μM and concentrations in the range 0.001-20 μM) in 5 μl assay buffer [50 mM Hepes/NaOH pH 7, 10 mM MgCl2, 0.5 mM MnCl2, 0.1 mM sodium ortho-vanadate, 1.0 mM dithiothreitol, 0.01% NP40, protease inhibitor mixture (“Complete w/o EDTA” from Roche, 1 tablet per 2.5 ml), 1% (v/v) dimethylsulfoxide]. The reaction was stopped by the addition of 5 μl of an aqueous buffer (25 mM Hepes/NaOH pH 7.5, 0.28% (w/v) bovine serum albumin) containing EDTA (90 mM) and the HTRF (Homogeneous Time Resolved Fluorescence) detection reagents streptavidine-XLent (0.2 μM, from Cis Biointernational, Marcoule, France) and PT66-Eu-Chelate (0.3 ng/μl; a europium-chelate labelled anti-phospho-tyrosine antibody from Perkin Elmer).
(§1) The resulting mixture was incubated 1 h at 22° C. to allow the binding of the biotinylated phosphorylated peptide to the streptavidine-XLent and the PT66-Eu-Chelate. Subsequently the amount of phosphorylated substrate peptide was evaluated by measurement of the resonance energy transfer from the PT66-Eu-Chelate to the streptavidine-XLent. Therefore, the fluorescence emissions at 620 nm and 665 nm after excitation at 350 nm was measured in a HTRF reader, e.g. a Rubystar (BMG Labtechnologies, Offenburg, Germany) or a Viewlux (Perkin-Elmer). The ratio of the emissions at 665 nm and at […] was taken as the measure for the amount of phosphorylated substrate peptide. The data were normalised (enzyme reaction without inhibitor=0% inhibition, all other assay components but no enzyme=100% inhibition) and IC50 values were calculated by a 4 parameter fit using an inhouse software.

Tie2 = molecular target: T3, Tie2 (Homo sapiens, UniProt Q02763); test: Tie2-Kinase HTRF-Assay without kinase preactivation (assay 2); conditions: 10 μM ATP, pIC50 = −log IC50 in molar concentration, read-out: Tie 2 activity (assay 2)
T3 construct: A recombinant fusion protein of GST and the intracellular domains of Tie2; GST; made in house; host or cells: insect cells (Hi-5)
T3 sequence (Q02763 770-1124 limits assumed): as above
From the text: Tie2-inhibitory activity of compounds of the present invention was quantified employing two Tie2 HTRF assay as described in the following paragraphs.
A recombinant fusion protein of GST and the intracellular domains of Tie2, expressed in insect cells (Hi-5) and purified by Glutathion-Sepharose affinity chromatography was used as kinase. Alternatively, commercially available GST-Tie2-fusion protein (Upstate Biotechnology, Dundee, Scotland) can be used as substrate for the kinase reaction the biotinylated peptide biotin-Ahx-EPKDDAYPLYSDFG (C-terminus in amid form) was used which can be purchased e.g. from the company Biosynthan GmbH (Berlin-Buch, Germany). Detection of phosphorylated product is achieved specifically by a trimeric detection complex consisting of the phosphorylated substrate, streptavidin-XLent (SA-XLent) which binds to biotin, and Europium Cryptate-labeled anti-phosphotyrosine antibody PT66 which binds to phosphorylated tyrosine.
Tie2 (3.5 ng/measurement point) was incubated for 60 min at 22° C. in the presence of 10 μM adenosine-tri-phosphate (ATP) and 1 μM substrate peptide (biotin-Ahx-EPKDDAYPLYSDFG-NH2) with different concentrations of test compounds (0 μM and concentrations in the range 0.001-20 μM) in 5 μl assay buffer [50 mM Hepes/NaOH pH 7, 10 mM MgCl2, 0.5 mM MnCl2, 1.0 mM dithiothreitol, 0.01% NP40, protease inhibitor mixture (“Complete w/o EDTA” from Roche, 1 tablet per 2.5 ml), 1% (v/v) dimethylsulfoxide]. The reaction was stopped by the addition of 5 μl of an aqueous buffer (25 mM Hepes/NaOH pH 7.5, 0.28% (w/v) bovine serum albumin) containing EDTA (90 mM) and the HTRF (Homogeneous Time Resolved Fluorescence) detection reagents streptavidine-XLent (0.2 μM, from Cis Biointernational, Marcoule, France) and PT66-Eu-Chelate (0.3 ng/μl; a europium-chelate labelled anti-phospho-tyrosine antibody from Perkin Elmer).
as §1

SMILES	IC50 (CDK2/CycE)	IC50 (preactivated Tie2)	IC50 (Tie2)
C[C@H](CO)Nc1nc(Nc2cccc(S(C)(=N)=O)c2)ncc1-c1ccc(NC(=O)C2(c3ccccc3)CC2)cc1 (mixture of isomers) [Example 33, N-{4-[4-{[(R)-2-Hydroxy-1-methylethyl]amino}-2-({3-[(RS)-S-methylsulfonimidoyl]phenyl}amino)pyrimidin-5-yl]phenyl}-1-phenylcyclopropanecarboxamide]	> 10000 nM	100 to 1000 nM	< 100 nM
CCOC(=O)N=S(C)(=O)c1cccc(Nc2ncc(-c3ccc(NS(=O)(=O)c4cccc(Cl)c4Cl)cc3)c(N[C@H](C)CO)n2)c1 (mixture of isomers) [Example 2, 2,3-Dichloro-N-{4-[2-({3-[(RS)-N-(ethoxycarbonyl)-S-methylsulfonimidoyl]phenyl}amino)-4-{[(R)-2-hydroxy-1-methylethyl]amino}pyrimidin-5-yl]-phenyl}benzenesulfonamide]	> 10000 nM	100 to 1000 nM	100 to 1000 nM
C[C@H](CO)Nc1nc(Nc2cccc(S(C)(=N)=O)c2)ncc1-c1ccc(NS(=O)(=O)c2cccc(Cl)c2Cl)c(F)c1 (mixture of isomers) [Example 42, 2,3-Dichloro-N-[2-fluoro-4-(4-{[(R)-2-hydroxy-1-methylethyl]amino}-2-{[3-(RS)-(S-methylsulfonimidoyl)phenyl]amino}-pyrimidin-5-yl)phenyl]benzene-sulfonamide]	> 10000 nM	< 100 nM	100 to 1000 nM
CCOC(=O)N=S(C)(=O)c1cccc(Nc2ncc(-c3ccc(NC(=O)C4(c5ccccc5)CC4)cc3)c(N[C@H](C)CO)n2)c1 (mixture of isomers) [Example 9, N-{4-[2-({3-[(RS)-N-(Ethoxycarbonyl)-S-methylsulfonimidoyl]phenyl}amino)-4-{[(R)-2-hydroxy-1-methylethyl]amino}-pyrimidin-5-yl]phenyl}-1-phenylcyclopropane-carboxamide]	> 10000 nM	100 to 1000 nM	100 to 1000 nM

More lines, now with the values ahead:

IC50 (CDK2/CycE)	IC50 (preactivated Tie2)	IC50 (Tie2)	SMILES
> 10000 nM	100 to 1000 nM	100 to 1000 nM	CCOC(=O)N=S(C)(=O)c1cccc(Nc2ncc(-c3ccc(NS(=O)(=O)c4cccc(Cl)c4Cl)c(F)c3)c(N[C@H](C)CO)n2)c1 (mixture of isomers) [Example 13, 2,3-Dichloro-N-{4-[2-({3-[(RS)-N-(ethoxycarbonyl)-S-methylsulfonimidoyl]phenyl}amino)-4-{[(R)-2-hydroxy-1-methylethyl]amino}-pyrimidin-5-yl]-2-fluorophenyl}-benzenesulfonamide]
> 10000 nM	< 100 nM	< 100 nM	CCOC(=O)N=S(C)(=O)c1cccc(Nc2ncc(-c3ccc(NC(=O)Nc4cc(C(F)(F)F)ccc4F)c(F)c3)c(OC)n2)c1 (racemic) [Example 31, 1-{4-[2-({3-[(RS)-N-(Ethoxycarbonyl)-S-methylsulfonimidoyl]phenyl}amino)-4-(methoxy)-pyrimidin-5-yl]-2-fluorophenyl}-3-[2-fluoro-5-(trifluoromethyl)-phenyl]urea]
> 10000 nM	< 100 nM	< 100 nM	CS(=N)(=O)c1cccc(Nc2ncc(-c3ccc(NC(=O)Nc4cc(C(F)(F)F)ccc4F)c(F)c3)c(NCCCN3CCOCC3)n2)c1 (racemic) [Example 43, 1-[2-Fluoro-4-(2-{[3-(RS)-(S-methylsulfonimidoyl)phenyl]amino}-4-[(3-morpholin-4-ylpropyl)amino]-pyrimidin-5-yl)phenyl]-3-[2-fluoro-5-(trifluoromethyl)-phenyl]urea]
> 10000 nM	100 to 1000 nM	< 100 nM	CCOC(=O)N=S(C)(=O)c1cccc(Nc2ncc(-c3ccc(NC(=O)Nc4cc(C(F)(F)F)ccc4F)c(F)c3)c(NCCN3CCN(C)CC3)n2)c1 (racemic) [Example 28, 1-{4-[2-({3-[(RS)-N-(Ethoxycarbonyl)-S-methylsulfonimidoyl]phenyl}amino)-4-{[2-(N-methyl-piperazin-4-yl)ethyl]amino}pyri-midin-5-yl]-2-fluorophenyl}-3-[2-fluoro-5-(trifluoromethyl)-phenyl]urea]
> 10000 nM	< 100 nM	< 100 nM	CNc1nc(Nc2cccc(S(C)(=N)=O)c2)ncc1-c1ccc(NC(=O)Nc2cc(C(F)(F)F)ccc2F)c(F)c1 (racemic) [Example 49, 1-{2-Fluoro-4-[4-(methylamino)-2-{[3-(RS)-(S-methylsulfonimidoyl)phenyl]amino}-pyrimidin-5-yl]phenyl}-3-[2-fluoro-5-(trifluoromethyl)-phenyl]urea]
> 10000 nM	–	< 100 nM	CCOC(=O)N=S(C)(=O)c1cccc(Nc2ncc(-c3ccc(NC(=O)Nc4cc(C(F)(F)F)ccc4F)c(F)c3)c(SC)n2)c1 (racemic) [Example 17, 1-{4-[2-({3-[(RS)-N-(Ethoxycarbonyl)-S-methylsulfonimidoyl]phenyl}amino)-4-(methylsulfanyl)pyrimidin-5-yl]-2-fluorophenyl}-3-[2-fluoro-5-(trifluoromethyl)phenyl]urea]
